# From patent US9572792B2, “Coumarin compounds as receptor modulators with therapeutic utility” (Allergan, Inc., priority 2009, dated 2017)
# Target: human S1P1 receptor (Homo sapiens (Human), UniProt P21453)
# Assay: GTP γ35S binding assay
# Format: biochemical
# Conditions: S1P1 receptor from GTP γ35S; membranes of cells stably expressing the S1P1 receptor
# Method: The S1P1 activity of the compounds according to the invention, were tested using the GTP γ^35S binding assay. The compounds were assessed for their ability to activate or block activation of the human S1P1 receptor in cells stably expressing the S1P1 receptor.
# GTP γ^35S binding was measured in the medium containing (mM) HEPES 25, pH 7.4, MgCl2 10, NaCl 100, dithiothreitol 0.5, digitonin 0.003%, 0.2 nM GTP γ^35S, and 5 μg membrane protein in a volume of 150 μl. Test compounds were included in the concentration range from 0.08 to 5,000 nM unless indicated otherwise. Membranes were incubated with 100 μM 5′-adenylylimidodiphosphate for 30 min, and subsequently with 10 μM GDP for 10 min on ice. Drug solutions and membrane were mixed, and then reactions were initiated by adding GTP γ^35S and continued for 30 min at 25° C. Reaction mixtures were filtered over Whatman GF/B filters under vacuum, and washed three times with 3 mL of ice-cold buffer (HEPES 25, pH7.4, MgCl2 10 and NaCl 100). Filters were dried and mixed with scintillant, and counted for ^35S activity using a 8-counter. Agonist-induced GTP γ^35S binding was obtained by subtracting that in the absence of agonist. Binding data were analyzed using a non-linear regression method. In case of antagonist assay, the reaction mixture contained 10 nM S1P in the presence of test antagonist at concentrations ranging from 0.08 to 5000 nM.
# S1P1 receptor from GTP γ^35S: nM, (EC50),
# Sequence of human S1P1 receptor (P21453 whole entry): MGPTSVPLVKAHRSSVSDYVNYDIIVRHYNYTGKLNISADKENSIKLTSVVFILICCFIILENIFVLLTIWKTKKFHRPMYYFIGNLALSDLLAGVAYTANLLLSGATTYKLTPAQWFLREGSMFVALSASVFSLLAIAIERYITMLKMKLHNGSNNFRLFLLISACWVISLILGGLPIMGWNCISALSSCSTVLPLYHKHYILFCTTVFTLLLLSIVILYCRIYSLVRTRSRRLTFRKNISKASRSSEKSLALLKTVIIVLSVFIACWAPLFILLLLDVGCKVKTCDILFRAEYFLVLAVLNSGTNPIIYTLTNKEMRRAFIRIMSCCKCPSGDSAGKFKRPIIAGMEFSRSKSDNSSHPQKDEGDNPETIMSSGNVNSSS
row,Structure (SMILES),EC50 [nM]
1,"CCCc1c(OC)ccc2cc(C(=O)Nc3ccccc3Br)c(=O)oc12 [Compound 5, N-(2-bromophenyl)-7-methoxy-2-oxo-8-propyl-2H-chromene-3-carboxamide]",26.4
2,"CCCc1c(OC)ccc2cc(C(=O)Nc3ccncc3Br)c(=O)oc12 [Compound 6, N-(3-bromopyridin-4-yl)-7-methoxy-2-oxo-8-propyl-2H-chromene-3-carboxamide]",19
3,"CCCc1c(OC)ccc2cc(C(=O)Nc3ccc(S(N)(=O)=O)cc3Br)c(=O)oc12 [Compound 38, N-[4-(aminosulfonyl)-2-bromophenyl]-7-methoxy-2-oxo-8-propyl-2H-chromene-3-carboxamide]",3.5
4,"CCCc1c(OC)ccc2cc(C(=O)Nc3ccc(NC(=O)[C@H](N)CCC(=O)O)cc3C)c(=O)oc12 [Compound 62, (4R)-4-amino-5-[(4-{[(7-methoxy-2-oxo-8-propyl-2H-chromen-3-yl)carbonyl]amino}-3-methylphenyl)amino]-5-oxopentanoic acid]",3.1
